The results in this text go back to patent publication US10781204B2, “TYK2 inhibitors and uses thereof” (Nimbus Lakshmi, Inc., priority 2015, dated 2020).

Assay [1] relates to JAK2-pSTAT5 (GM-CSF induced pSTAT5). The assay is described as follows: GM-CSF induced pSTAT5 in human PBMC. The class given is cell-based. Conditions: 5 ng/mL GM-CSF. The essentials:
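Thawed human PBMC, 200,000 per well in serum-containing medium, were preincubated 1 hr at 37 C with compound in 0.1% DMSO. GM-CSF at 5 ng/mL final was added for 20 minutes, then pSTAT5 and total STAT5 in lysates were measured by MSD immunoassay.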

Assay [2] deals with JAK2 (Homo sapiens (Human), UniProt O60674). The assay is described as follows: JAK2 radioactive kinase assay. As to conditions: ATP 10 μM. The class given is biochemical. The essentials:
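Radiometric assay in Hepes pH 7.5, MgCl2, EGTA, Brij35, BSA, DTT, 1% DMSO, with 10 μM [33P]ATP, 120 min at room temp; P81 paper capture and counting. […]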

The test system of assay [3] is Tyk2-pSTAT4 (IL-12 induced pSTAT4). The assay is described as follows: IL-12 induced pSTAT4 in human PBMC. Format: cell-based. As to conditions: 0.5 h, 1.7 ng/mL IL-12, 30 minutes. The method, boiled down:
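pSTAT4 and total STAT4 quantified by MSD in cell lysates after 30 minutes of 1.7 ng/mL IL-12 stimulation. Beforehand, compound (0.1% DMSO final) sat 1 hr at 37 C on 200,000 thawed buffy-coat PBMC per well in serum-containing medium.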

Assay [4] concerns the target TYK2 (Homo sapiens (Human), UniProt P29597). The assay can be described thus: Tyk2 radioactive kinase assay. Conditions: ATP 10 μM. The class given is biochemical. The method, boiled down:
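Recombinant human TYK2 (Invitrogen) was mixed with 20 μM peptide substrate in a buffer of 20 mM Hepes pH 7.5, 10 mM MgCl2, 1 mM EGTA, 0.02% Brij35, 0.02 mg/mL BSA, 0.1 mM […], 2 mM DTT and 1% DMSO, and compounds in DMSO were added. Adding ^33P-ATP (10 μM ATP) started the reaction, which ran 120 min at room temperature. Mixtures were then spotted onto P81 ion-exchange paper, washed thoroughly in 0.75% phosphoric acid, and counted for radioactivity.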

Chain of JAK2 (O60674 whole entry): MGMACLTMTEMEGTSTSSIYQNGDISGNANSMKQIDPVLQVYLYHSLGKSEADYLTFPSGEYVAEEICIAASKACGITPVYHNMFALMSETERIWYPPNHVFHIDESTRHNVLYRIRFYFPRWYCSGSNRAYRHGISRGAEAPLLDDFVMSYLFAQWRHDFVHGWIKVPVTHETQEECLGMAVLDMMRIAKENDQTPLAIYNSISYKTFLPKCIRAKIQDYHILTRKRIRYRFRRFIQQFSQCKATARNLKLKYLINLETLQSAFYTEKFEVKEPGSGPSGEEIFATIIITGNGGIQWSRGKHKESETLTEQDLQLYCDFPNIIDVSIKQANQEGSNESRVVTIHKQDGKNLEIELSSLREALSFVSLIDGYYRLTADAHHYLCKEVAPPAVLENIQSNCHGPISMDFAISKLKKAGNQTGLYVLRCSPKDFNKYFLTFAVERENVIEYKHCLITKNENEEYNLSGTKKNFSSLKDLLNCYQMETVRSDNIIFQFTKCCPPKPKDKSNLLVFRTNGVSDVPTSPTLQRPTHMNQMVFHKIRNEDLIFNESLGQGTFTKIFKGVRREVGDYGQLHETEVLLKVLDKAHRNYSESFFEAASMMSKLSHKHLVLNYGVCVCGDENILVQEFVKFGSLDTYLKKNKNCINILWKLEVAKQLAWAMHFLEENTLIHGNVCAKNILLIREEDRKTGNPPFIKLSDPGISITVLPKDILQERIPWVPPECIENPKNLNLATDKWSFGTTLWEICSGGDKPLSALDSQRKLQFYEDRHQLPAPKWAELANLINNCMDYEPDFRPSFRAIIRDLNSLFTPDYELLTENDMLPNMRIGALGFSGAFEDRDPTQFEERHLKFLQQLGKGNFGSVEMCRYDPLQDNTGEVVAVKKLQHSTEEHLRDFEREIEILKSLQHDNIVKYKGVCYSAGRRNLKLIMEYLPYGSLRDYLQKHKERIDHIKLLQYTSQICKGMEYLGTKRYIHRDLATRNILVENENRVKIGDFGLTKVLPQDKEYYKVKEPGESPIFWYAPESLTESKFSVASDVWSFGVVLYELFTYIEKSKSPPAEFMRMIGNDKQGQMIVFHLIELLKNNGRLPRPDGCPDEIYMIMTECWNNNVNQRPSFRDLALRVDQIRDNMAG
Chain of TYK2 (P29597 whole entry): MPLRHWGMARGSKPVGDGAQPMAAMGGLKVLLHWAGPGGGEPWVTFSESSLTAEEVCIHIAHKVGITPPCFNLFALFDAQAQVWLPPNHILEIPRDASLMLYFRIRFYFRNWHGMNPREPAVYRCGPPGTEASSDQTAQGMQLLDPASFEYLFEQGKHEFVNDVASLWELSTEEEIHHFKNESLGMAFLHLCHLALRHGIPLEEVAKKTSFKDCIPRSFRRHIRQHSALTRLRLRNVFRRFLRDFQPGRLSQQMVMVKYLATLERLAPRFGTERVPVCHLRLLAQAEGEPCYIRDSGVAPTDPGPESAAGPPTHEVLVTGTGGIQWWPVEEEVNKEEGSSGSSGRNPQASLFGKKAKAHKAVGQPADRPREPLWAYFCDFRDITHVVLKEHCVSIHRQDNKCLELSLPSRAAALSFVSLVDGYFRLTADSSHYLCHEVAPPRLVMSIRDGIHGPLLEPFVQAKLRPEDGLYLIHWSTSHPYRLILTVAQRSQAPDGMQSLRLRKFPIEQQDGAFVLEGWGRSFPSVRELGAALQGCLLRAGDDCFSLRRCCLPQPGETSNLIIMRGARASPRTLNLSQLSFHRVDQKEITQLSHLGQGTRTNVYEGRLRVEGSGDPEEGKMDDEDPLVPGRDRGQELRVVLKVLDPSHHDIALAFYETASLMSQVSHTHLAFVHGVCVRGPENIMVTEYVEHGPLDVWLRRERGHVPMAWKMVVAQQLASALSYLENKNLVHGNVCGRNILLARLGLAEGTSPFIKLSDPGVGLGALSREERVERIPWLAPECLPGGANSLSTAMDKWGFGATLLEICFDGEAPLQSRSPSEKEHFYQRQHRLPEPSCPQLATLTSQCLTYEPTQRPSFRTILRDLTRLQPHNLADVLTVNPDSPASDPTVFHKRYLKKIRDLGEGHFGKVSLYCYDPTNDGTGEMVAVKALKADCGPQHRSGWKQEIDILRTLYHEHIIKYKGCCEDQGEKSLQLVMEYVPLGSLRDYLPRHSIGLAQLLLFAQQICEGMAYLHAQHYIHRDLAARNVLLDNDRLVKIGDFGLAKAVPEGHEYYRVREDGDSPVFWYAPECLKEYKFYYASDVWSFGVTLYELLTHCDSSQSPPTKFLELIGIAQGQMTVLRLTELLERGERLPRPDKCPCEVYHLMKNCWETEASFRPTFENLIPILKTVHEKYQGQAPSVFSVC

For `CN1CCN([C@H]2CCCN(c3ccn(-c4cc(-c5c(F)cccc5C#N)nc5c4C(=O)NC5)n3)C2)CC1` [I-155, (S)-3-fluoro-2-(4-(3-(3-(4-methylpiperazin-1-yl)piperidin-1-yl)-1H-pyrazol-1-yl)-5-oxo-6,7-dihydro-5H-pyrrolo[3,4-b]pyridin-2-yl)benzonitrile], the EC50 (commonly the concentration giving half of the maximal effect) was over 2000 nM in assay [1] (Homo sapiens, PBMC, 20 min) and 100 to 2000 nM in assay [3] (Homo sapiens, PBMC). The Ki (in general, a dissociation constant, usually derived from enzyme kinetics or from competition with a known ligand) in assay [2] lay in the range of 10 to 100 nM; in assay [4], 0.1 to 10 nM.
For `N#Cc1cccc(F)c1-c1cc(-c2ccn(C(=O)N3CCOCC3)n2)c2c(n1)CNC2=O` [I-231, 3-fluoro-2-(4-(1-(morpholine-4-carbonyl)-1H-pyrazol-3-yl)-5-oxo-6,7-dihydro-5H-pyrrolo[3,4-b]pyridin-2-yl)benzonitrile], in that order: over 2000 nM, over 2000 nM, 100 to 1000 nM and 10 to 100 nM.
For `CC(=O)NC1CCCN(c2ccn(-c3cc(-c4c(F)cccc4C#N)nc4c3C(=O)NC4)n2)C1` (stereo not drawn) [I-123, N-(1-(1-(2-(2-cyano-6-fluorophenyl)-5-oxo-6,7-dihydro-5H-pyrrolo[3,4-b]pyridin-4-yl)-1H-pyrazol-3-yl)piperidin-3-yl)acetamide] the same measures were over 2000 nM, 100 to 2000 nM, 0.1 to 10 nM and 0.1 to 10 nM.
For `N#Cc1cccc(F)c1-c1cc(-n2cc(F)c(N3CCC(O)C3)n2)c2c(n1)CNC2=O` (stereo not drawn) [I-185, 3-fluoro-2-(4-(4-fluoro-3-(3-hydroxypyrrolidin-1-yl)-1H-pyrazol-1-yl)-5-oxo-6,7-dihydro-5H-pyrrolo[3,4-b]pyridin-2-yl)benzonitrile], the EC50 in assay [1] (Homo sapiens, PBMC, 20 min) was in the range of 100 to 2000 nM; in assay [3] (Homo sapiens, PBMC), 100 to 2000 nM. For the same compound, the inhibition constant (Ki) was 10 to 100 nM in assay [2] and 0.1 to 10 nM in assay [4].
Regarding `CO[C@@H]1CCN(c2ccn(-c3cc(-c4c(F)cccc4C#N)nc4c3C(=O)NC4)n2)C[C@]1(C)O` [I-213, 3-fluoro-2-(4-(3-((3S,4R)-3-hydroxy-4-methoxy-3-methylpiperidin-1-yl)-1H-pyrazol-1-yl)-5-oxo-6,7-dihydro-5H-pyrrolo[3,4-b]pyridin-2-yl)benzonitrile], the EC50 in assay [1] (20 minutes) was over 2000 nM; in assay [3] (Homo sapiens, PBMC), 100 to 2000 nM. Also, the Ki in assay [2] fell in the range of 10 to 100 nM; in assay [4] it was 0.009 to 0.1 nM.
Take `CO[C@@H]1CCN(c2ccn(-c3cc(-c4c(F)cccc4C#N)nc4c3C(=O)NC4)n2)C[C@H]1O` [I-193, 3-fluoro-2-(4-(3-((3R,4R)-3-hydroxy-4-methoxypiperidin-1-yl)-1H-pyrazol-1-yl)-5-oxo-6,7-dihydro-5H-pyrrolo[3,4-b]pyridin-2-yl)benzonitrile]: the concentration for a half-maximal effect (EC50) in assay [1] (Homo sapiens, PBMC, 20 min) is over 2000 nM; in assay [3] (Homo sapiens, PBMC), 100 to 2000 nM. In addition, the inhibitory constant (Ki) in assay [2] and in assay [4] was 0.1 to 10 nM each time.
Consider `N#Cc1cccc(F)c1-c1cc(-n2cc(F)c(N3CC[C@H](O)C3)n2)c2c(n1)CNC2=O` [I-190, (S)-3-fluoro-2-(4-(4-fluoro-3-(3-hydroxypyrrolidin-1-yl)-1H-pyrazol-1-yl)-5-oxo-6,7-dihydro-5H-pyrrolo[3,4-b]pyridin-2-yl)benzonitrile], for which the EC50 in assay [1] (Homo sapiens, PBMC, 20 min) fell in the range of 100 to 2000 nM; in assay [3] (Homo sapiens, PBMC), 100 to 2000 nM. For the same compound, the Ki in assay [2] is 10 to 100 nM; in assay [4], 0.1 to 10 nM.
`N#Cc1cccc(F)c1-c1cc(-n2ccc([C@@H]3CCCO3)n2)c2c(n1)CNC2=O` [I-104, (S)-3-fluoro-2-(5-oxo-4-(3-(tetrahydrofuran-2-yl)-1H-pyrazol-1-yl)-6,7-dihydro-5H-pyrrolo[3,4-b]pyridin-2-yl)benzonitrile]: the EC50 was 100 to 2000 nM in assay [1] (Homo sapiens, PBMC, 20 min) and 100 to 2000 nM in assay [3] (Homo sapiens, PBMC). Moreover, the inhibition constant (Ki) in assay [2] fell in the range of 100 to 1000 nM; in assay [4], 0.1 to 10 nM.
`CO[C@H]1CN(c2ccn(-c3cc(-c4c(F)cccc4C#N)nc4c3C(=O)NC4)n2)CC[C@H]1OC` [I-176, 2-(4-(3-((3S,4R)-3,4-dimethoxypiperidin-1-yl)-1H-pyrazol-1-yl)-5-oxo-6,7-dihydro-5H-pyrrolo[3,4-b]pyridin-2-yl)-3-fluorobenzonitrile]: the EC50 is 100 to 2000 nM in assay [1] (Homo sapiens, PBMC, 20 min) and 100 to 2000 nM in assay [3] (Homo sapiens, PBMC). The Ki was 10 to 100 nM in assay [2] and 0.1 to 10 nM in assay [4].
Take `CO[C@H]1CN(c2ccn(-c3cc(-c4c(F)cccc4C#N)nc4c3C(=O)NC4)n2)C[C@@]1(C)O` [I-226, 3-fluoro-2-(4-(3-((3R,4S)-3-hydroxy-4-methoxy-3-methyl-pyrrolidin-1-yl)-1H-pyrazol-1-yl)-5-oxo-6,7-dihydro-5H-pyrrolo[3,4-b]pyridin-2-yl)benzonitrile]: the EC50 in assay [1] (Homo sapiens, PBMC, 20 min) fell in the range of 100 to 2000 nM; in assay [3] (Homo sapiens, PBMC), 30 to 100 nM. In addition, the Ki in assay [2] and in assay [4] was 0.1 to 10 nM each time.
For the compound `[2H]C1([2H])N(c2ccn(-c3cc(-c4c(F)cccc4C#N)nc4c3C(=O)NC4)n2)C([2H])([2H])[C@]([2H])(O)C1([2H])[2H]` [I-208, (R)-3-fluoro-2-(4-(3-(3-hydroxypyrrolidin-1-yl-2,2,3,4,4,5,5-d7)-1H-pyrazol-1-yl)-5-oxo-6,7-dihydro-5H-pyrrolo[3,4-b]pyridin-2-yl)benzonitrile], the 50% effective concentration (EC50) in assay [1] (Homo sapiens, PBMC, 20 min) is over 2000 nM; in assay [3] (Homo sapiens, PBMC), 100 to 2000 nM. Also, the Ki in assay [2] lay in the range of 10 to 100 nM; in assay [4], 0.1 to 10 nM.
For `C[C@@]1(O)CCN(c2ccn(-c3cc(-c4c(F)cccc4C#N)nc4c3C(=O)NC4)n2)C1` [I-92, (R)-3-fluoro-2-(4-(3-(3-hydroxy-3-methylpyrrolidin-1-yl)-1H-pyrazol-1-yl)-5-oxo-6,7-dihydro-5H-pyrrolo[3,4-b]pyridin-2-yl)benzonitrile], in that order: 100 to 2000 nM, 30 to 100 nM, 10 to 100 nM and 0.1 to 10 nM.
In the case of `N#Cc1cccc(F)c1-c1cc(-n2ccc(NCCN3CCOCC3)n2)c2c(n1)CNC2=O` [I-63, 3-fluoro-2-(4-(3-((2-morpholinoethyl)amino)-1H-pyrazol-1-yl)-5-oxo-6,7-dihydro-5H-pyrrolo[3,4-b]pyridin-2-yl)benzonitrile], the 50% effective concentration (EC50) in assay [1] (20 min) and in assay [3] was 100 to 2000 nM throughout. Moreover, the Ki in assay [2] lay in the range of 10 to 100 nM; in assay [4], 0.1 to 10 nM.
Take `CO[C@H]1CN(c2ccn(-c3cc(-c4c(F)cccc4C#N)nc4c3C(=O)NC4)n2)CC[C@H]1O` [I-181, 3-fluoro-2-(4-(3-((3S,4R)-4-hydroxy-3-methoxypiperidin-1-yl)-1H-pyrazol-1-yl)-5-oxo-6,7-dihydro-5H-pyrrolo[3,4-b]pyridin-2-yl)benzonitrile]: the EC50 in assay [1] (Homo sapiens, PBMC, 20 min) fell in the range of 100 to 2000 nM; in assay [3] (Homo sapiens, PBMC) it was 100 to 2000 nM. The Ki fell in the range of 10 to 100 nM in assay [2] and 0.1 to 10 nM in assay [4].
As for `[2H]C([2H])([2H])O[C@H]1CN(c2ccn(-c3cc(-c4c(F)cccc4C#N)nc4c3C(=O)NC4)n2)C[C@H]1O` [I-224, 3-fluoro-2-(4-(3-((3R,4S)-3-hydroxy-4-(methoxy-d3)pyrrolidin-1-yl)-1H-pyrazol-1-yl)-5-oxo-6,7-dihydro-5H-pyrrolo[3,4-b]pyridin-2-yl)benzonitrile], the EC50 in assay [1] (Homo sapiens, PBMC, 20 min) was 100 to 2000 nM; in assay [3] (Homo sapiens, PBMC), 30 to 100 nM. The Ki in assay [2] was in the range of 10 to 100 nM; in assay [4] it was 0.1 to 10 nM.
For `CS(=O)(=O)NC1CCN(c2ccn(-c3cc(-c4c(F)cccc4C#N)nc4c3C(=O)NC4)n2)C1` (stereo not drawn) [I-120, N-(1-(1-(2-(2-cyano-6-fluorophenyl)-5-oxo-6,7-dihydro-5H-pyrrolo[3,4-b]pyridin-4-yl)-1H-pyrazol-3-yl)pyrrolidin-3-yl)methanesulfonamide], in that order: 100 to 2000 nM, 100 to 2000 nM, 0.1 to 10 nM and 0.1 to 10 nM.
As for `[2H]C1([2H])N(c2ccn(-c3cc(-c4c(F)cccc4C#N)nc4c3C(=O)NC4)n2)C([2H])([2H])[C@@]([2H])(O)C1([2H])[2H]` [I-209, (S)-3-fluoro-2-(4-(3-(3-hydroxypyrrolidin-1-yl-2,2,3,4,4,5,5-d7)-1H-pyrazol-1-yl)-5-oxo-6,7-dihydro-5H-pyrrolo[3,4-b]pyridin-2-yl)benzonitrile], the EC50 is over 2000 nM in assay [1] (Homo sapiens, PBMC, 20 min) and 100 to 2000 nM in assay [3] (Homo sapiens, PBMC). In addition, the results for the Ki in assay [2] and in assay [4] were 10 to 100 nM and 0.1 to 10 nM, respectively.
For `CC1(O)CN(c2ccn(-c3cc(-c4c(F)cccc4C#N)nc4c3C(=O)NC4)n2)CCC1F` (stereo not drawn) [I-219, 3-fluoro-2-(4-(3-(4-fluoro-3-hydroxy-3-methylpiperidin-1-yl)-1H-pyrazol-1-yl)-5-oxo-6,7-dihydro-5H-pyrrolo[3,4-b]pyridin-2-yl)benzonitrile], in that order: 100 to 2000 nM, 100 to 2000 nM, 10 to 100 nM and 0.1 to 10 nM.
